Patent US8119661B2, “Piperidine derivatives and their use as muscarinic receptor modulators” (AstraZeneca AB, priority 2007, dated 2012)

Tests used:
[1] = target: T1, hM5 (human Muscarinic receptor subtype 5) (Homo sapiens, UniProt P08912); assay: Human M5 calcium mobilization FLIPR assay; format: cell-based; conditions: CHO cells expressing hM5, intracellular Ca2+ release
T1 construct: expressed in transfected cells; host or cells: CHO cells (Chinese hamster ovary cells, ATCC)
T1 sequence (P08912 1-532): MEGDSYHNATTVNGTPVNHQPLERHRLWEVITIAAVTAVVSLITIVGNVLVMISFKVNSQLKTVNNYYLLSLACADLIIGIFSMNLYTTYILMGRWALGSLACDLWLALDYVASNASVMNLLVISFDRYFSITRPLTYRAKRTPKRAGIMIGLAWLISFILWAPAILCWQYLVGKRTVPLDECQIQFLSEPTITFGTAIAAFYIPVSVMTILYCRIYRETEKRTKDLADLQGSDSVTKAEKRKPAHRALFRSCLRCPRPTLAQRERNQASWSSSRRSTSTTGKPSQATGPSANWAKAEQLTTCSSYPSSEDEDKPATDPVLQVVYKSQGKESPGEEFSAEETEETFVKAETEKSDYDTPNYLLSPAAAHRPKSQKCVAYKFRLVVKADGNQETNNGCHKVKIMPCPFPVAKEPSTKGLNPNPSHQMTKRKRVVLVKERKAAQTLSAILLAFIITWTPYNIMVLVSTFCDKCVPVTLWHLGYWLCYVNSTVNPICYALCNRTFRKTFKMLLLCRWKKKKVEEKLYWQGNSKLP
Experimental: The compound activity in the present invention (EC50 or IC50) is measured using a 384 plate-based imaging assay that monitors drug induced intracellular Ca^2+ release in whole cells. Activation of hM1 (human Muscarinic receptor subtype 1, gene bank access NM_000738), rM1 (rat Muscarinic receptor subtype 1, gene bank access NM_080773), hM3 (human Muscarinic receptor subtype 3, gene bank access NM_000740NM_000740) and hM5 (human Muscarinic receptor subtype 5, gene bank access NM_0121258), receptors expressed in CHO cells (Chinese hamster ovary cells, ATCC) is quantified in a Molecular Devices FLIPR II™ instrument as an increase in fluorescent signal. Inhibition of hM3 and hM5 by compounds is determined by the decrease in fluorescent signal in response to 2 nM acetylcholine activation.
Prior to experiment, the cell culture medium is removed from the plates by inversion. […] Plates are incubated at 37° C. for 60 minutes prior to start the experiment. The incubation is terminated by washing the cells four times in assay buffer, leaving a residual 25 μl buffer per well. Cell plates are then transferred to the FLIPR, ready for compound additions.
The day of experiment, acetylcholine and compounds are diluted in assay buffer in three-fold concentration range (10 points serial dilution) for addition by FLIPR instrument. For all calcium assays, a baseline reading is taken for 10 seconds followed by the addition of 12.5 μl of compounds, resulting in a total well volume of 37.5 μl. Data is collected every second for 60 pictures and then every 6 seconds for 20 pictures prior to the addition of agonist. For hM3 and hM5, before agonist addition, a second baseline reading is taken for 10 seconds followed by the addition of 12.5 μl of agonist or buffer, producing a final volume of 50 μl. After agonist stimulation, the FLIPR continues to collect data every second for 60 pictures and then every 6 seconds for 20 pictures. The fluorescence emission is read using filter 1 (emission 510-570 nm) by the FLIPR on board CCD camera.
Calcium mobilization output data are calculated as the maximal relative fluorescence unit (RFU) minus the minimal value for both compound and agonist reading frame (except for hM1 and rM1 using only the maximal RFU). Data are analyzed using sigmoidal fits of a non-linear curve-fitting program (XLfit version 4.2.2 Excel add-in version 4.2.2 build 18 math 1Q version 2.1.2 build 18). All pEC50 and pIC50 values are reported as arithmetic means±standard error of mean of ‘n’ independent experiments.

cloned human M2 receptor = target: T2, cloned human M2 receptor (Homo sapiens, UniProt P08172); assay: hM2 receptor GTPγS binding; format: biochemical; conditions: CHO membranes expressing hM2, [35S]GTPγS binding
T2 construct: purchased Perkin-Elmer RBHM2M; host or cells: CHO cell membranes
T2 sequence (P08172 1-466): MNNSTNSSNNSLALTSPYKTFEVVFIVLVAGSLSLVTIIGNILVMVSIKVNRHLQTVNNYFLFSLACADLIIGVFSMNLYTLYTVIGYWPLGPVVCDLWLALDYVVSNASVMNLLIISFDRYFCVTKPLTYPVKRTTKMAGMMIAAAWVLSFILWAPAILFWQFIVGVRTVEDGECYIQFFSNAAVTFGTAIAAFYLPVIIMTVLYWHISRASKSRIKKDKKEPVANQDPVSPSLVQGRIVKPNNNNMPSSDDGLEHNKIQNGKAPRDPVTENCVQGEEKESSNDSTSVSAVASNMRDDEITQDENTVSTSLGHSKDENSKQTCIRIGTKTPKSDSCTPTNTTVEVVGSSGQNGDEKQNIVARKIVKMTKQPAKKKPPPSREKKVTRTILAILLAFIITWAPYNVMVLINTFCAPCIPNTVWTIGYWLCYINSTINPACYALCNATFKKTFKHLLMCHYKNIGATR
Experimental: Membranes produced from Chinese hamster ovary cells (CHO) expressing the cloned human M2 receptor (human Muscarinic receptor subtype 2, gene bank access NM_000739), are obtained from Perkin-Elmer (RBHM2M). The membranes are thawed at 37° C., passed 3 times through a 23-gauge blunt-end needle, diluted in the GTPγS binding buffer (50 mM Hepes, 20 mM NaOH, 100 mM NaCl, 1 mM EDTA, 5 mM MgCl2, pH 7.4, 100 μM DTT). The EC50, IC50 and Emax of the compounds of the invention are evaluated from 10-point dose-response curves (three fold concentration range) done in 60 μl in 384-well non-specific binding surface plate (Corning). Ten microliters from the dose-response curves plate (5× concentration) are transferred to another 384 well plate containing 25 μl of the following: 5 μg of hM2 membranes, 500 μg of Flashblue beads (Perkin-Elmer) and GDP 25 μM. An additional 15 μl containing 3.3× (60,000 dpm) of GTPγ^35S (0.4 nM final) are added to the wells resulting in a total well volume of 50 μl. Basal and maximal stimulated [^35S]GTPγS binding are determined in absence and presence of 30 μM final of acetylcholine agonist. The membranes/beads mix are pre-incubated for 15 minutes at room temperature with 25 μM GDP prior to distribution in plates (12.5 μM final). The reversal of acetylcholine-induced stimulation (2 μM final) of [^35S]GTPγS binding is used to assay the antagonist properties (IC50) of the compounds. The plates are incubated for 60 minutes at room temperature then centrifuged at 400 rpm for 5 minutes. The radioactivity (cpm) is counted in a Trilux (Perkin-Elmer).
Values of EC50, IC50 and Emax are obtained using sigmoidal fits of a non-linear curve-fitting program (XLfit version 4.2.2 Excel add-in version 4.2.2 build 18 math 1Q version 2.1.2 build 18) of percent stimulated [^35S]GTPγS binding vs. log(molar ligand). All pEC50 and pIC50 values are reported as arithmetic means±standard error of mean of ‘n’ independent experiments.

- EC50 [1]: > 40000 nM
- EC50 (cloned human M2 receptor): 2340 nM
SMILES: CCC(=O)N1CCC(C)(N2CCC(N3C(=O)N[C@H]4CCCC[C@@H]43)CC2)CC1 [Example 18, (3aS,7aS)-3-[1-(4-methyl-1-propanoyl-4-piperidyl)-4-piperidyl]-3a,4,5,6,7,7a-hexahydro-1H-benzimidazol-2-one]
